A short description of data set [1]: radiochemistry purity over time measured by HPLC (stability). It is filed as physicochemical. To be noted: main peak 63. On the procedure: Referring to FIG. 4, an HPLC is used to measure the radiochemistry purity of the ^123I-ADAM 13. Reverse-phase high-performance liquid chromatography equipped with a radiodetector is used for the qualitative and quantitative assessment of the ^123I-ADAM 13. The retention time of the ^123I-ADAM 13 is 18 minutes.
Referring to FIG. 6, the radiochemistry purity of the ^123I-ADAM after 0 hour is shown in a chart. At 61, the radiochemistry purity is 0.67%. At 62, the radiochemistry purity is 1.58%. At 63, the radiochemistry purity is 97.78%.
Referring to FIG. 7, the radiochemistry purity of the ^123I-ADAM after 48 hours is shown in a chart. At 64, the radiochemistry purity is 4.41%. At 65, the radiochemistry purity is 1.55%. At 66 the radiochemistry purity is 94.04%. After 48 hours, the radiochemistry purity is still higher than 90%.

The target in data set [2] is T1, serotonin transporter (Rattus norvegicus, UniProt P31652).
T1 construct: from tissue; host or cells: brain of a SD rat (in vivo imaging)
Nature of the data set: microSPECT and microCT imaging of the brain of a SD rat. It is filed as in vivo. The source says:
Referring to FIG. 8, a microCT image 71 and a microSPECT image 72 of the brain of a SD rat are shown. A fused image 73 of the microCT image and the microSPECT image 72 is also shown. […] The concentration of the serotonin transporter in the midbrain is higher than in the cerebellum 73. The ^123I-ADAM 13 can effectively be used to detect the serotonin transporter.

Data set [3] concerns serotonin transporter. Nature of the data set: SPECT and MRI imaging of the brain of an ape. It is filed as in vivo. The source says:
Referring to FIG. 9, the ^123I-ADAM is used to provide a SPECT image and a MRI image 82 of an ape. […] The concentration of the serotonin transporter in the hypothalamus is higher than in the cerebellum 83. The ^123I-ADAM 13 can effectively be used to detect the serotonin transporter.

The conditions of data set [4]: cited from earlier work.
In data set [5] the target is T2, serotonin transporter (Homo sapiens, UniProt P31645). The settings on record: cited from earlier work; for clarity of the image obtained: compared with ^125I-IDAM; for specific binding affinity: imaging of the serotonin transporter.
For data set [6], the target named is T2, serotonin transporter. The settings on record: cited from earlier work.
The next data set deals with SERT (Homo sapiens, UniProt P31645). To be noted: in vitro specific binding assay; cited from earlier work.

These results are taken from patent publication US20100331577A1, “Method for radio-labeling serotonin transporter ligand, 123I-IADM” (ATOMIC ENERGY COUNCIL-INSTITUTE OF NUCLEAR ENERGY RESEARCH, priority 2008, published 2010).

T2 sequence (P31645 whole entry): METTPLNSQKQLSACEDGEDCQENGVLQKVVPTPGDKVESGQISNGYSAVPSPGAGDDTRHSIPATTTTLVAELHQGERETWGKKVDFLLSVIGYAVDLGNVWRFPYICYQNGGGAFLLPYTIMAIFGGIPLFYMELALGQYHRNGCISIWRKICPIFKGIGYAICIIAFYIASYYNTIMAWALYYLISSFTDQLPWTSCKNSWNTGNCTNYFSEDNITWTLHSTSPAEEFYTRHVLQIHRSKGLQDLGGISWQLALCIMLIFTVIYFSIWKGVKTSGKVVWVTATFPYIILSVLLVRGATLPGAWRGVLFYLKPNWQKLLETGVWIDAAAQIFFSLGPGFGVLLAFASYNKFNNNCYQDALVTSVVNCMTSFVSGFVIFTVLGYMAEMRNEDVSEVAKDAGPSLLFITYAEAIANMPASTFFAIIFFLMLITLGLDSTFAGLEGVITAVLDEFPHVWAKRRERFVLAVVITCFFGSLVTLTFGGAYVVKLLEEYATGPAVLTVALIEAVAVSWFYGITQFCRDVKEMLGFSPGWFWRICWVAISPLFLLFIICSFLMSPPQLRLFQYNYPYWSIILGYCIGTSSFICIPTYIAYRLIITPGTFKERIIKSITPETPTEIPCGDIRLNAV
Sequence of SERT (P31645 whole entry): as above
T1 sequence (P31652 whole entry): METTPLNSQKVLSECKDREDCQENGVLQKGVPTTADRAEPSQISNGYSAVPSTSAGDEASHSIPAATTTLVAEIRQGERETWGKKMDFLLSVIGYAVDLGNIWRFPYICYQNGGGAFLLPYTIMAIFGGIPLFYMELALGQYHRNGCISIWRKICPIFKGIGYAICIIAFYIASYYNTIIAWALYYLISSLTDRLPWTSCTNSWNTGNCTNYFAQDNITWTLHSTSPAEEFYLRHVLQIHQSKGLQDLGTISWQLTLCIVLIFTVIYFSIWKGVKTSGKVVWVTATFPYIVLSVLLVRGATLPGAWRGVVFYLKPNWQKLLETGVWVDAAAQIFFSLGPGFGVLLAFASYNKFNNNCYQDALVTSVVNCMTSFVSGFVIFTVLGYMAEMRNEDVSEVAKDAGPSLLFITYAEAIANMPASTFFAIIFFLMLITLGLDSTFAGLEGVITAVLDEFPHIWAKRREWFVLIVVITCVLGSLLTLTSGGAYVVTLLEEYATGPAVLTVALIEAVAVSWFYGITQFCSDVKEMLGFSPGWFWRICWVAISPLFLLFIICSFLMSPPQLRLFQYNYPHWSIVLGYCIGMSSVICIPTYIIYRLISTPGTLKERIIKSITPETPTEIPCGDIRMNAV

Consider `CN(C)Cc1ccccc1Sc1ccc([123I])cc1N` [^123I-ADAM], for which, in data set [1], the “radiochemistry purity after 0 hour” value is given as 97.78%. Besides, at serotonin transporter [2], the “affinity with the midbrain versus cerebellum” value was “better than with the cerebellum”. Further, in the data set with serotonin transporter [3], the “affinity with the hypothalamus of the midbrain versus cerebellum” value is “more affinitive than with the cerebellum”.

On to `CN(C)Cc1ccccc1Sc1ccc([125I])cc1N` [^125I-ADAM], for which the “absorption by the brain” value in data set [4] (compared with ^125I-IDAM) is reported as “less than ^125I-IDAM”. At serotonin transporter [5], the “clarity of the image obtained” value is listed as “clearer” and the specific binding affinity result is recorded as “much higher than ^125I-IDAM”. The “affinity with the serotonin transporter” value on serotonin transporter [6] is reported as “much better than that of ^125I-IDAM”.

As for `CN(C)Cc1ccccc1Sc1ccc([125I])cc1CO` [^125I-IDAM], in data set [4] (two minutes after injection), the “absorption by a brain” value is recorded as 2.44%. The specific binding affinity on serotonin transporter [5] is on record as 1.75.

On to `CN(C)Cc1ccccc1Oc1ccc([125I])cc1CO` [^125I-ODAM], for which the “clarity of the image obtained” value on serotonin transporter [5] is “less clear than with the use of ^125I-IDAM”. The “specific binding affinity with SERT” value on SERT is “good”.
